Reference: patent US10253015B2, “Pyridinyl quinolinone derivatives as mutant-isocitrate dehydrogenase inhibitors” (FORMA TM2, Inc., priority 2014, dated 2019)

Tests used:
[1] = test system: HCT116 isogenic IDH1-R132C mutant cells; assay: Cellular 2-HG assay using HCT116 mutant IDH1 cells (R132C); assay type: cell-based; settings: Homo sapiens, HCT-116; cellular 2-HG inhibition, 24 hours, RapidFire mass spectrometry; read-out: HCT IDH1 R132C Range IC50
Procedure: HCT116 isogenic IDH1-R132H and IDH1-R132C mutant cells were cultured in growth media (McCoy's 5 A, 10% fetal bovine serum, 1× antibiotic-antimycotic solution and 0.3 mg/mL G418) in 5% CO2 in an incubator at 37° C. To prepare the assay, cells were trypsinized and resuspended in assay media (McCoy's 5 A with no L-glutamine, 10% fetal bovine serum, 1× antibiotic-antimycotic solution and 0.3 mg/mL G418). An aliquot of 10,000 cells/100 μL was transferred to each well of a clear 96-well tissue culture plate. The cells were incubated in 5% CO2 at 37° C. in an incubator overnight to allow for proper cell attachment. An aliquot of 50 μL of compound containing assay media were then added to each well and the assay plate was kept in 5% CO2 at 37° C. in an incubator for 24 hours. The media was then removed from each well and 150 μL of a methanol/water mixture (80/20 v/v) was added to each well. The plates were kept at −80° C. freezer overnight to allow for complete cell lysis. An aliquot of 125 μL of extracted supernatant was analyzed by RapidFire high-throughout-mass spectrometry (Agilent) to determine the cellular 2-HG level. The IC50 of a given compound was calculated by fitting the dose response curve of cellular 2-HG inhibition at a given concentration with the four parameter logistic equation

[2] = biological target: IDH1-R132H recombinant protein (Homo sapiens (Human), UniProt O75874, R132H); assay: IDH1-R132H enzymatic assay; assay type: biochemical; settings: inhibition of NADPH consumption, diaphorase/resazurin readout; read-out: Enzyme IDH1 R132H Range IC50
Procedure: (§1) Assays were performed in a 384-well black plate. […] After the plate was centrifuged briefly, an aliquot of 10 μL of 2 mM α-ketoglutarate and 20 μM NADPH solution prepared in assay buffer was then added to each well and the reaction was maintained at 25° C. for 45 minutes. An aliquot of 10 μL of diaphorase solution (0.15 U/mL diaphorase and 30 μM Resazurin in assay buffer) was added to each well. […] The IC50 of a given compound was calculated by fitting the dose response curve of inhibition of NADPH consumption at a given concentration with the four parameter logistic equation.

[3] = biological target: IDH1-R132C recombinant protein (Homo sapiens (Human), UniProt O75874, R132C); assay: IDH1-R132C enzymatic assay; assay type: biochemical; settings: inhibition of NADPH consumption, diaphorase/resazurin readout; read-out: Enzyme IDH1 R132C Range IC50
Procedure: as §1

Chain of IDH1-R132H recombinant protein (O75874 whole entry R132H): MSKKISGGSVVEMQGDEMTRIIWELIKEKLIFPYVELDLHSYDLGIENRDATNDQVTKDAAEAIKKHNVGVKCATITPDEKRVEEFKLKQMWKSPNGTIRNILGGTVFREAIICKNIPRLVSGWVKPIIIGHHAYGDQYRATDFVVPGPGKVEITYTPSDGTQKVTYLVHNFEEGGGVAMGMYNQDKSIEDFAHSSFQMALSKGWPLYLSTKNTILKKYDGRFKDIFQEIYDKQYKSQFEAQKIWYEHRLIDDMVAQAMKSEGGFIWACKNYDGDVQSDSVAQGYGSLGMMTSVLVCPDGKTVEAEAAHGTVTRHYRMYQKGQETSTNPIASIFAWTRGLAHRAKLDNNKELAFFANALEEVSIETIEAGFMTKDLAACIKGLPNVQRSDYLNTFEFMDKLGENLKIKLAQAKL
Chain of IDH1-R132C recombinant protein (O75874 whole entry R132C): as the sequence (O75874 whole entry R132H) above, with H132C counted along it

| SMILES | IC50 [1] [nM] | IC50 [2] [nM] | IC50 [3] [nM] |
| --- | --- | --- | --- |
| COc1cc2[nH]c(=O)c(C(C)Nc3ccc(C#N)c(C)n3)cc2cc1Cl (stereo not shown) [Compound I-24, 6-{[1-(6-chloro-7-methoxy-2-oxo-1,2-dihydroquinolin-3-yl)ethyl]amino}-2-methylpyridine-3-carbonitrile] | 100 to 1000 | – | – |
| CC(C)n1nccc1-c1ccnc(N[C@@H](C)c2cc3cc(Cl)ccc3[nH]c2=O)c1 [Compound I-44, 6-chloro-3-[(1S)-1-({4-[1-(propan-2-yl)-1H-pyrazol-5-yl]pyridin-2-yl}amino)ethyl]-1,2-dihydroquinolin-2-one] | – | 1000 to 10000 | 1000 to 10000 |
| CC(C)[C@H]1COC(=O)N1c1cccc(N[C@@H](C)c2cc3cc(Cl)ccc3[nH]c2=O)n1 [Compound I-19, 6-chloro-3-[(1S)-1-({6-[(4S)-2-oxo-4-(propan-2-yl)-1,3-oxazolidin-3-yl]pyridin-2-yl}amino)ethyl]-1,2-dihydroquinolin-2-one] | – | 100 to 1000 | 1000 to 10000 |
| COc1cc(N[C@@H](C)c2cc3cc(Cl)ccc3[nH]c2=O)ncc1C#N [Compound I-1, 6-{[(1S)-1-(6-chloro-2-oxo-1,2-dihydroquinolin-3-yl)ethyl]amino}-4-methoxypyridine-3-carbonitrile] | 100 to 1000 | – | – |
| C[C@H](Nc1cc(-c2ccnn2C)ccn1)c1cc2cc(Cl)ccc2[nH]c1=O [Compound I-49, 6-chloro-3-[(1S)-1-{[4-(1-methyl-1H-pyrazol-5-yl)pyridin-2-yl]amino}ethyl]-1,2-dihydroquinolin-2-one] | – | 1000 to 10000 | 1000 to 10000 |
| Cc1cc(-c2ccnc(N[C@@H](C)c3cc4cc(Cl)ccc4[nH]c3=O)c2F)n(C)n1 [Compound I-52, 6-chloro-3-[(1S)-1-{[4-(1,3-dimethyl-1H-pyrazol-5-yl)-3-fluoropyridin-2-yl]amino}ethyl]-1,2-dihydroquinolin-2-one] | – | 1000 to 10000 | > 10000 |
| C[C@H](Nc1cc(-c2ccnn2C2CCCCO2)ccn1)c1cc2cc(Cl)ccc2[nH]c1=O (stereo partly drawn) [Compound I-47, 6-chloro-3-[(1S)-1-({4-[1-(oxan-2-yl)-1H-pyrazol-5-yl]pyridin-2-yl}amino)ethyl]-1,2-dihydroquinolin-2-one] | – | 1000 to 10000 | 1000 to 10000 |
| C[C@H](Nc1nccc(-c2ccnn2C)c1F)c1cc2cc(Cl)ccc2[nH]c1=O [Compound I-53, 6-chloro-3-[(1S)-1-{[3-fluoro-4-(1-methyl-1H-pyrazol-5-yl)pyridin-2-yl]amino}ethyl]-1,2-dihydroquinolin-2-one] | – | 1000 to 10000 | > 10000 |
| COc1cc2[nH]c(=O)c([C@H](C)Nc3ccc(C#N)c(C)n3)cc2cc1Cl [Compound I-23, 6-{[(1S)-1-(6-chloro-7-methoxy-2-oxo-1,2-dihydroquinolin-3-yl)ethyl]amino}-2-methylpyridine-3-carbonitrile] | 10 to 100 | – | – |
| C[C@H](Nc1cc(-c2c[nH]nc2C(F)(F)F)ccn1)c1cc2cc(Cl)ccc2[nH]c1=O [Compound I-50, 6-chloro-3-[(1S)-1-({4-[3-(trifluoromethyl)-1H-pyrazol-4-yl]pyridin-2-yl}amino)ethyl]-1,2-dihydroquinolin-2-one] | – | 1000 to 10000 | > 10000 |
| Cc1cc(-c2ccnc(N[C@@H](C)c3cc4cc(Cl)ccc4[nH]c3=O)c2)n(C)n1 [Compound I-39, 6-chloro-3-[(1S)-1-{[4-(1,3-dimethyl-1H-pyrazol-5-yl)pyridin-2-yl]amino}ethyl]-1,2-dihydroquinolin-2-one] | – | 1000 to 10000 | 100 to 1000 |
| N#Cc1ccc(NCc2cc3cc(Cl)ccc3[nH]c2=O)nc1 [Compound I-67, 6-{[(6-chloro-2-oxo-1,2-dihydroquinolin-3-yl)methyl]amino}pyridine-3-carbonitrile] | – | 100 to 1000 | > 10000 |
| CC(C)Cn1nccc1-c1ccnc(N[C@@H](C)c2cc3cc(Cl)ccc3[nH]c2=O)c1 [Compound I-43, 6-chloro-3-[(1S)-1-({4-[1-(2-methylpropyl)-1H-pyrazol-5-yl]pyridin-2-yl}amino)ethyl]-1,2-dihydroquinolin-2-one] | – | 1000 to 10000 | 1000 to 10000 |
| Cc1cscc1-c1ccnc(N[C@@H](C)c2cc3cc(Cl)ccc3[nH]c2=O)c1 [Compound I-48, 6-chloro-3-[(1S)-1-{[4-(4-methylthiophen-3-yl)pyridin-2-yl]amino}ethyl]-1,2-dihydroquinolin-2-one] | – | 1000 to 10000 | 1000 to 10000 |
| CC(C)Cn1nccc1-c1ccnc(N[C@@H](C)c2cc3cc(Cl)ccc3[nH]c2=O)c1F [Compound I-56, 6-chloro-3-[(1S)-1-({3-fluoro-4-[1-(2-methylpropyl)-1H-pyrazol-5-yl]pyridin-2-yl}amino)ethyl]-1,2-dihydroquinolin-2-one] | – | > 10000 | > 10000 |
| COc1cc(N[C@@H](C)c2cc3cc(Cl)ccc3n(C)c2=O)ncc1C#N [Compound I-2, 6-{[(1S)-1-(6-chloro-1-methyl-2-oxo-1,2-dihydroquinolin-3-yl)ethyl]amino}-4-methoxypyridine-3-carbonitrile] | – | 1000 to 10000 | 1000 to 10000 |
| C[C@H](Nc1nccc(NCCO)c1F)c1cc2cc(Cl)ccc2[nH]c1=O [Compound I-36, 6-chloro-3-[(1S)-1-({3-fluoro-4-[(2-hydroxyethyl)amino]pyridin-2-yl}amino)ethyl]-1,2-dihydroquinolin-2-one] | – | 1000 to 10000 | > 10000 |
| CC(=O)Nc1ccnc(N[C@@H](C)c2cc3cc(Cl)ccc3[nH]c2=O)c1F [Compound I-34, N-(2-{[(1S)-1-(6-chloro-2-oxo-1,2-dihydroquinolin-3-yl)ethyl]amino}-3-fluoropyridin-4-yl)acetamide] | – | < 100 | 100 to 1000 |
| C[C@H](Nc1cc(N2C(=O)OCC2(C)C)ccn1)c1cc2cc(Cl)ccc2[nH]c1=O [Compound I-13, 6-chloro-3-[(1S)-1-{[4-(4,4-dimethyl-2-oxo-1,3-oxazolidin-3-yl)pyridin-2-yl]amino}ethyl]-1,2-dihydroquinolin-2-one] | – | 100 to 1000 | 1000 to 10000 |
| Cc1nc(NCc2cc3cc(Cl)c(OCCN4CCN(S(C)(=O)=O)CC4)cc3[nH]c2=O)ccc1C#N [Compound I-85, 6-[({6-chloro-7-[2-(4-methanesulfonylpiperazin-1-yl)ethoxy]-2-oxo-1,2-dihydroquinolin-3-yl}methyl)amino]-2-methylpyridine-3-carbonitrile] | – | < 100 | 100 to 1000 |
| N#Cc1ccc(NCc2cc3cc(Cl)ccc3[nH]c2=O)nc1C(F)(F)F [Compound I-60, 6-{[(6-chloro-2-oxo-1,2-dihydroquinolin-3-yl)methyl]amino}-2-(trifluoromethyl)pyridine-3-carbonitrile] | – | 1000 to 10000 | – |
| CC(Nc1cc(N2C(=O)OC[C@@H]2C(C)C)ccn1)c1cc2cc(Cl)ccc2[nH]c1=O (stereo partly drawn) [Compound I-18, 6-chloro-3-[1-({4-[(4S)-2-oxo-4-(propan-2-yl)-1,3-oxazolidin-3-yl]pyridin-2-yl}amino)ethyl]-1,2-dihydroquinolin-2-one] | – | 100 to 1000 | 1000 to 10000 |
| C[C@H](Nc1cc(N2CCOC2=O)ccn1)c1cc2cc(Cl)ccc2[nH]c1=O [Compound I-10, 6-chloro-3-[(1S)-1-{[4-(2-oxo-1,3-oxazolidin-3-yl)pyridin-2-yl]amino}ethyl]-1,2-dihydroquinolin-2-one] | – | < 100 | 1000 to 10000 |
| COc1ccc2[nH]c(=O)c(CNc3ccc(C#N)cn3)cc2c1 [Compound I-81, 6-{[(6-methoxy-2-oxo-1,2-dihydroquinolin-3-yl)methyl]amino}pyridine-3-carbonitrile] | – | 1000 to 10000 | – |
| O=c1[nH]c2ccc(Cl)cc2cc1CNc1ccc(Cl)cn1 [Compound I-75, 6-chloro-3-{[(5-chloropyridin-2-yl)amino]methyl}-1,2-dihydroquinolin-2-one] | – | 1000 to 10000 | – |
| Cc1cc(NCc2cc3cc(Cl)ccc3[nH]c2=O)ncc1C#N [Compound I-59, 6-{[(6-chloro-2-oxo-1,2-dihydroquinolin-3-yl)methyl]amino}-4-methylpyridine-3-carbonitrile] | – | 100 to 1000 | 1000 to 10000 |
| Cc1noc(C)c1-c1ccnc(N[C@@H](C)c2cc3cc(Cl)ccc3[nH]c2=O)c1F [Compound I-54, 6-chloro-3-[(1S)-1-{[4-(dimethyl-1,2-oxazol-4-yl)-3-fluoropyridin-2-yl]amino}ethyl]-1,2-dihydroquinolin-2-one] | – | > 10000 | – |
| C[C@H](Nc1cc(-c2ccn[nH]2)ccn1)c1cc2cc(Cl)ccc2[nH]c1=O [Compound I-41, 6-chloro-3-[(1S)-1-{[4-(1H-pyrazol-5-yl)pyridin-2-yl]amino}ethyl]-1,2-dihydroquinolin-2-one] | – | 1000 to 10000 | 1000 to 10000 |
